Measurements from patent publication USRE42152E1, “Aromatic-linked polyamine macrocyclic compounds with anti-HIV activity” (Genzyme Corporation, priority 1992, dated 2011).
≈ marks a conversion by molar mass, not a printed value. Where two headings read alike, the source gives them in different places. Each block holds one molecule with its values, some of them ahead of it.

Tests used:
[1] = system: HIV-1 (HTLV-IIIB); test: microbe, parasite or virus in culture; type: cell-based; details: for IC50: Human immunodeficiency virus 1, IIIB, MT4, 120 h, read-out: IC50 HIV-1 (IIIB)
[2] = system: HIV-2 (LAV-2 ROD); test: MTT anti-viral screen, MT-4 cells challenged with HIV-2; type: cell-based; details: for IC50: Human immunodeficiency virus 2, MT4, 120 h, read-out: IC50 HIV-2 (ROD)
[3] = Cytotoxicity by MTT method in MT-4 cells; type: cell-based
[4] = system: HIV-1 strain IIIb; test: Time-of-addition experiment, MT4 cells infected with HIV-1 IIIb, p24 antigen; type: cell-based; details: HIV-1 IIIb at high multiplicity, p24 at 29 hours after infection
Procedure: To pinpoint the stage at which the compounds interact with the HIV replicative cycle, a time-of-addition experiment was carried out on MT4 cells infected with HIV-1 strain IIIb at high virus multiplicity to ensure that the virus replicative steps would be synchronised in the whole cell populations. Test compounds wife added 1, 2, 3, . . . 22, 23, 24 hours after infection, and vital p24 antigen production determined 29 hours after infection.
Depending on the stage at which compounds interact and the need for intracellular metabolism, addition of the compounds could be delayed for n hours without loss of activity.

[5] = system: HIV uncoating (or fusion); test: Sensitivity of viral RNA from freshly infected MT4 cells to RNase degradation (uncoating); type: cell-based; details: radiolabelled viral particles, RNA harvested 4 hours after infection
From the text: It was reasoned that if tincoating (fusion) was hampered, the viral capsid (or envelope) proteins would remain associated with the viral RNA genome and thus the RNA should be protected against RNase attack.

[6] = system: MT-4 cells; test: Cytotoxicity by MTT method in MT-4 cells; type: cell-based
[7] = system: HIV-1, strain IIIb; test: microbe, parasite or virus in culture; type: cell-based; details: Lymphocytes, HIV-1 IIIb
Procedure: Adsorption was allowed for 2 hours at 37° C. […] Test compound was added after stimulation and virus adsorption.
(§1) IC50 and IC90 values were calculated by comparing the p24 antigen concentrations in supernatent of treated, infected cells and uncreated, infected cells at days 11 and 14 post infection.

[8] = system: HIV-1, BaL; test: microbe, parasite or virus in culture; type: cell-based; details: Monocytes, HIV-1 BaL
Procedure: Mononuclear cells were isolated from healthy, HIV-negative donors using Ficoll density separation. Cells (4×10^6/ml) were incubated for 5 days in 48 well plates (Costar) in monocyte medium consisting of RPMII640, supplemented with 20% ECS and 10% human serum. On day 5 non-adherent cells were washed out four times with warm PBS containing 2% human serum.
The monocytotropic strain of HIV-1, BaL, was used for the infection of these monocyte preparations (Pemo et al, 1 Exp Meal, 169, 933, 1989).
Adherent monocytes were exposed to […] of a 1:30 dilution of HIV-1, BaL for 30 minutes subsequently, monocyte medium was added to 1 ml/well. Adsorption was allowed for 24 hours at 37° C. Then, the wells were washed twice in order to remove excess virus and were cultivated in the presence of different drug concentrations. Thus, test compounds were added after adsorption. Every 3 to 4 days post infection the supernatant of the infected cultures was removed and replaced by fresh medium containing the test compound at the particular concentration. The concentration of viral p24 antigen was determined as described above.
as §1

[9] = system: Jurkat cells; test: Growth of exponentially growing cells (cell numbers); type: cell-based; details: Jurkat
[10] = system: MT4 cells; details: MT4
[11] = system: MOLT4 cells; details: MOLT4
[12] = system: U937 cell line; details: U937
[13] = MT-4 cells, 100 CCID50, 5 days, MTT
[14] = human, MT-4 cells, 5 days, MTT; HIV-1 part of table; read-out: CC50 (HIV-1 (IIIB))
[15] = human, MT-4 cells, 5 days, MTT; HIV-2 part of table; read-out: CC50 (HIV-2 (ROD))
[16] = human; MT-4 cells, 5 days, MTT; HIV-1 part of table; read-out: CC50 (HIV-1 (IIIB))
[17] = MT-4 cells, 5 days, MTT, HIV-2 part of table

Molecule: CC(C)=CCN1Cc2cc(Cl)cc3[nH]c(=S)n(c23)C[C@@H]1C [Compound R82913]
n, hours addition could be delayed after infection without loss of activity [4]: 6 h
resistance of viral RNA to degradation by RNase [5]: did not show this increased resistance

Molecule: Cc1cn([C@H]2C[C@H](N=[N+]=[N-])[C@@H](CO)O2)c(=O)[nH]c1=O [AZT, reference compound]
IC50 HIV-1 (IIIB) [1, 13]: <0.008 µg/mL
CC50 (HIV-1 (IIIB)) [6]: >1 µg/mL
IC50 day 11 ([7]; p24, day 11 post infection): 0.00045 µg/mL (≈ 0.00168 µM)
IC90 day 11 ([7]; p24, day 11 post infection): 0.0022 µg/mL (≈ 0.00823 µM)
IC50 day 14 ([7]; p24, day 14 post infection): 0.00043 µg/mL (≈ 0.00161 µM)
IC90 day 14 ([7]; p24, day 14 post infection): 0.0011 µg/mL (≈ 0.00412 µM)
IC50 day 11 ([8]; p24, day 11 post infection): 0.0010 µg/mL (≈ 0.00374 µM)
IC90 day 11 ([8]; p24, day 11 post infection): 0.0015 µg/mL (≈ 0.00561 µM)
IC50 day 14 ([8]; p24, day 14 post infection): 0.0010 µg/mL (≈ 0.00374 µM)
IC90 day 14 ([8]; p24, day 14 post infection): 0.0017 µg/mL (≈ 0.00636 µM)
TC50 [9]: 184 µg/mL (≈ 689 µM)
n, hours addition could be delayed after infection without loss of activity [4]: ~4 h
TC50 [10]: 23 µg/mL (≈ 86.1 µM)
TC50 [11]: 37 µg/mL (≈ 138 µM)
TC50 [12]: 5 µg/mL (≈ 18.7 µM)

Molecule: CC(C)(C)NC(=O)[C@@H]1C[C@@H]2CCCC[C@@H]2CN1C[C@@H](O)[C@H](Cc1ccccc1)NC(=O)[C@H](CC(N)=O)NC(=O)c1ccc2ccccc2n1 [Ro31-8959]
n, hours addition could be delayed after infection without loss of activity [4]: 12 h
resistance of viral RNA to degradation by RNase [5]: did not show this increased resistance

Molecule: O=c1[nH]cnc2c1ncn2[C@H]1CC[C@@H](CO)O1 [DDI]
resistance of viral RNA to degradation by RNase [5]: did not show this increased resistance

Molecule: Br.Br.Br.Br.Br.Br.c1cc(CN2CCNCCNCCNCC2)ccc1CN1CCNCCNCCNCC1 [Compound R, 1,1′-[1,4-Phenylenebis-(methylene)]-bis-1,4,7,10-tetraazacyclododecane hexahydrobromide]
IC50 [1]: 0.3 µg/mL
IC50 [2]: 2.2 µg/mL
CC50 at 5 days [3, 16]: 51 µg/mL

Molecule: Br.Br.Br.Br.Br.Br.Br.Br.O.O.c1cc(CN2CCCNCCNCCNCCC2)ccc1CN1CCCNCCNCCNCCC1 [Compound M, 11,11′-[1,4-Phenylene-bis-(methylene)]-bis-1,4,7,11-tetraazacyclotetradecane octahydrobromide dihydrate]
IC50 [1]: 0.03 µg/mL
IC50 [2]: 0.07 µg/mL
CC50 at 5 days [3, 16]: > 500 µg/mL
CC50 (HIV-2 (ROD)) [6, 17]: >500 µg/mL

Molecule: 1,1′-[1,4-Phenylene-bis-(methylene)]-bis-1,4,8,11-tetraazacyclotetradecane zinc dichloride monohydrate [Compound F]
IC50 HIV-1 (IIIB) [1, 13]: 0.0026 µg/mL
IC50 HIV-2 (ROD) [2, 13]: 0.0019 µg/mL
CC50 (HIV-1 (IIIB)) ([6]; MT-4 cells, 5 days, MTT, HIV-1 part of table): >200 µg/mL
CC50 (HIV-2 (ROD)) [6, 17]: >200 µg/mL

Molecule: Br.Br.Br.Br.Br.Br.Br.Br.Br.Br.O.O.O.c1cc2ccc3ccc(CN4CCCNCCNCCCNCC4)nc3c2nc1CN1CCCNCCNCCCNCC1 [Compound L, 1,1′-[2,9-(1,10-Phenanthroline)-bis-(methylene)]-bis-1,4,8,11-tetraazacyclotetradecane decahydrobromide trihydrate]
IC50 HIV-1 (IIIB) [1, 13]: 0.29 µg/mL
IC50 HIV-2 (ROD) [2, 13]: 0.32 µg/mL
CC50 (HIV-1 (IIIB)) [6]: >200 µg/mL
CC50 (HIV-2 (ROD)) [6]: >200 µg/mL

Molecule: Br.Br.Br.Br.Br.Br.c1cc(CN2CCNCCNCCNCC2)cc(CN2CCNCCNCCNCC2)c1 [Compound Q, 1,1′-[1,3-Phenylenebis-(methylene)]-bis-1,4,7,10-tetraazacyclododecane hexahydrobromide]
IC50 [1]: 0.07 µg/mL
IC50 [2]: 0.5 µg/mL
CC50 at 5 days [3, 16]: 19 µg/mL

Now from value to molecule, other results behind:

IC50 [1, 13]: 0.0076 µg/mL (≈ 0.0143 µM)
IC50 [2, 13]: 0.0013 µg/mL (≈ 0.00245 µM)
Molecule: Cc1cc(CN2CCCNCCNCCCNCC2)c(C)cc1CN1CCCNCCNCCCNCC1 [W, 1,1′-[2,5-dimethyl-1,4-phenylenebis-(methylene)]-bis-1,4,8,11-tetraazacyclotetradecane]
CC50 at 5 days [3, 14]: > 250 µg/mL
CC50 at 5 days [3, 15]: > 250 µg/mL

IC50 [1, 13]: 0.0131 µg/mL (≈ 0.0229 µM)
IC50 [2, 13]: 0.003 µg/mL (≈ 0.00525 µM)
Molecule: Clc1cc(CN2CCCNCCNCCCNCC2)c(Cl)cc1CN1CCCNCCNCCCNCC1 [X, 1,1′-[2,5-dichloro-1,4-phenylenebis-(methylene)]-bis-1,4,8,11-tetraazacyclotetradecane]
CC50 at 5 days [3, 14]: 71.9 µg/mL (≈ 126 µM)
CC50 at 5 days [3, 15]: 72.7 µg/mL (≈ 127 µM)

IC50 [1, 13]: 0.03 µg/mL (≈ 0.0597 µM)
IC50 [2, 13]: < 0.01 µg/mL
Molecule: c1cc(CN2CCCNCCNCCCNCC2)cc(CN2CCCNCCNCCCNCC2)c1 [A, 1,1′-[1,3-phenylenebis(methylene)]bis-1,4,8,11-tetraazacyclotetradecane]
CC50 at 5 days [3, 14]: > 500 µg/mL
CC50 at 5 days [3, 15]: > 500 µg/mL

IC50 [1, 13]: 0.05 µg/mL (≈ 0.0913 µM)
IC50 [2, 13]: 0.07 µg/mL (≈ 0.128 µM)
Molecule: O=[N+]([O-])c1cc(CN2CCCNCCNCCCNCC2)cc(CN2CCCNCCNCCCNCC2)c1 [Compound C, 1,1′-[5-nitro-1,3-phenylenebis-(methylene)]-bis-1,4,8,11-tetraazacyclotetradecane]
CC50 at 5 days [3, 14]: 55 µg/mL (≈ 100 µM)
CC50 at 5 days [3, 15]: 55 µg/mL (≈ 100 µM)

IC50 [1, 13]: 0.0075 µg/mL (≈ 0.0129 µM)
IC50 [2, 13]: 0.0043 µg/mL (≈ 0.00739 µM)
Molecule: Brc1cc(CN2CCCNCCNCCCNCC2)ccc1CN1CCCNCCNCCCNCC1 [Y, 1,1′-[2-bromo-1,4-phenylenebis-(methylene)]-bis-1,4,8,11-tetraazacyclotetradecane]
CC50 at 5 days [3, 14]: > 250 µg/mL
CC50 at 5 days [3, 15]: > 250 µg/mL
